Source: the supplement of paper PMC10307832

Compound: CC1=C(C(=NN1)C)CC2=C(C3=C(S2)N(C(=O)N(C3=O)C)CC(C)C)C(=O)N4C[C@@H](CO4)O + CS(=O)(=O)CCNCc1ccc(-c2ccc3ncnc(Nc4ccc(OCc5cccc(F)c5)c(Cl)c4)c3c2)o1 [Lapatinib] (partner 2 µM)
Assay: relative viability (nuclei count vs DMSO), 5 days (fraction); higher = more cells survive
Conditions: first compound 0.0025 µM
Outline: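 Relative viability is defined as nuclei in treated wells over nuclei in vehicle wells. Duplicate plates were run and medians reported. Lung cancer cell lines in 1536-well plates were dosed by pin tool one day after seeding, with one drug or with a fixed anchor-drug dose plus five library-drug doses (not always all listed) in √10 steps, and nuclei were counted after 5 days.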

Going from HCC-827 to LXF-289, the relative viability rises from 0.189 to 0.909.

First: NCI-H23
Second: NCI-H647
The relative viability of the first is lower: 1.21 for the first, 1.28 for the second.

Compared with CAL-12T, NCI-H1651 is higher in relative viability: 0.822 for the first, 0.922 for the second.

First: EPLC-272H
Second: NCI-H2228
The relative viability of the first is higher: 1.08 for the first, 1.03 for the second.

First: NCI-H1792
Second: NCI-H1355
The relative viability of the first is lower: 0.963 for the first, 1.08 for the second.

First: NCI-H3122
Second: NCI-H1437
The relative viability of the first is higher: 1.06 for the first, 0.925 for the second.

Compared with NCI-H1755, NCI-H2023 is higher in relative viability: 1.04 for the first, 1.1 for the second.

Compared with HCC-15, PC-14 is lower in relative viability: 0.941 for the first, 0.373 for the second.

First: EKVX
Second: LC-2-ad
The relative viability of the first is lower: 0.251 for the first, 1.01 for the second.

First: NCI-H1563
Second: NCI-H1944
The relative viability of the first is higher: 0.944 for the first, 0.877 for the second.

First: NCI-H1975
Second: RERF-LC-KJ
The relative viability of the first is lower: 0.792 for the first, 0.899 for the second.

Going from ABC-1 to NCI-H358, the relative viability falls from 1.5 to 0.58.

Compared with NCI-H650, PC-3 [JPC-3] is lower in relative viability: 0.939 for the first, 0.475 for the second.

Same assay, conditions: first compound 0.007906 µM

Compared with HCC-827, LXF-289 is higher in relative viability: 0.171 for the first, 0.855 for the second.

Going from NCI-H23 to NCI-H647, the relative viability rises from 1.26 to 1.35.

Compared with CAL-12T, NCI-H1651 is higher in relative viability: 0.82 for the first, 0.971 for the second.

First: EPLC-272H
Second: NCI-H2228
The relative viability of the first is lower: 0.736 for the first, 1.02 for the second.

First: NCI-H1792
Second: NCI-H1355
The relative viability of the first is lower: 0.931 for the first, 1.11 for the second.

Going from NCI-H3122 to NCI-H1437, the relative viability falls from 1.03 to 0.981.

Compared with NCI-H1755, NCI-H2023 is higher in relative viability: 0.919 for the first, 0.965 for the second.

First: HCC-15
Second: PC-14
The relative viability of the first is higher: 0.814 for the first, 0.413 for the second.

Compared with EKVX, LC-2-ad is higher in relative viability: 0.198 for the first, 0.893 for the second.

First: NCI-H1563
Second: NCI-H1944
The relative viability of the first is higher: 1.01 for the first, 0.94 for the second.

First: NCI-H1975
Second: RERF-LC-KJ
The relative viability of the first is higher: 0.942 for the first, 0.928 for the second.

Compared with ABC-1, NCI-H358 is lower in relative viability: 0.918 for the first, 0.425 for the second.

First: NCI-H650
Second: PC-3 [JPC-3]
The relative viability of the first is lower: 0.0037 for the first, 0.411 for the second.

Same assay, conditions: first compound 0.025 µM

First: HCC-827
Second: LXF-289
The relative viability of the first is lower: 0.192 for the first, 0.875 for the second.

Compared with NCI-H23, NCI-H647 is higher in relative viability: 0.931 for the first, 1.04 for the second.

Going from NCI-H1651 to EPLC-272H, the relative viability rises from 0.771 to 0.907.

First: NCI-H2228
Second: NCI-H1792
The relative viability of the first is higher: 1.37 for the first, 0.834 for the second.

First: NCI-H1355
Second: NCI-H3122
The relative viability of the first is lower: 0.918 for the first, 1.01 for the second.

First: NCI-H1437
Second: NCI-H1755
The relative viability of the first is lower: 0.738 for the first, 1.02 for the second.

Compared with NCI-H2023, HCC-15 is lower in relative viability: 0.903 for the first, 0.786 for the second.

First: PC-14
Second: EKVX
The relative viability of the first is higher: 0.32 for the first, 0.203 for the second.

First: LC-2-ad
Second: NCI-H1563
The relative viability of the first is lower: 0.993 for the first, 0.999 for the second.

First: NCI-H1944
Second: NCI-H1975
The relative viability of the first is higher: 0.951 for the first, 0.916 for the second.

Compared with RERF-LC-KJ, ABC-1 is higher in relative viability: 0.86 for the first, 1.12 for the second.

Going from NCI-H358 to NCI-H650, the relative viability rises from 0.478 to 0.753.

PC-3 [JPC-3] gave a relative viability of 0.501.

Same assay, conditions: first compound 0.07906 µM

First: HCC-827
Second: LXF-289
The relative viability of the first is lower: 0.156 for the first, 0.891 for the second.

Going from NCI-H23 to NCI-H647, the relative viability falls from 1.27 to 1.15.

Compared with CAL-12T, NCI-H1651 is lower in relative viability: 0.837 for the first, 0.766 for the second.

First: EPLC-272H
Second: NCI-H2228
The relative viability of the first is higher: 1.19 for the first, 0.961 for the second.

Compared with NCI-H1792, NCI-H1355 is higher in relative viability: 0.746 for the first, 0.945 for the second.

First: NCI-H3122
Second: NCI-H1437
The relative viability of the first is higher: 0.993 for the first, 0.795 for the second.

First: NCI-H1755
Second: NCI-H2023
The relative viability of the first is higher: 1.04 for the first, 1.03 for the second.

Going from HCC-15 to PC-14, the relative viability falls from 0.82 to 0.32.

Compared with EKVX, LC-2-ad is higher in relative viability: 0.524 for the first, 0.912 for the second.

First: NCI-H1563
Second: NCI-H1944
The relative viability of the first is higher: 1.04 for the first, 0.822 for the second.

Compared with NCI-H1975, RERF-LC-KJ is lower in relative viability: 0.995 for the first, 0.885 for the second.

Compared with ABC-1, NCI-H358 is lower in relative viability: 0.92 for the first, 0.514 for the second.

First: NCI-H650
Second: PC-3 [JPC-3]
The relative viability of the first is higher: 0.893 for the first, 0.522 for the second.

Same assay, conditions: first compound 0.25 µM

Compared with HCC-827, LXF-289 is higher in relative viability: 0.167 for the first, 0.975 for the second.

Going from NCI-H23 to NCI-H647, the relative viability falls from 1.28 to 1.19.

Going from CAL-12T to NCI-H1651, the relative viability rises from 0.766 to 0.833.

First: EPLC-272H
Second: NCI-H2228
The relative viability of the first is lower: 0.937 for the first, 1.34 for the second.

Going from NCI-H1792 to NCI-H1355, the relative viability rises from 0.824 to 0.943.

First: NCI-H3122
Second: NCI-H1437
The relative viability of the first is higher: 1.02 for the first, 0.922 for the second.

Compared with NCI-H1755, NCI-H2023 is lower in relative viability: 1.07 for the first, 0.861 for the second.

Compared with HCC-15, PC-14 is lower in relative viability: 0.899 for the first, 0.359 for the second.

Going from EKVX to LC-2-ad, the relative viability rises from 0.191 to 1.14.

First: NCI-H1563
Second: NCI-H1944
The relative viability of the first is lower: 0.831 for the first, 0.92 for the second.

Compared with NCI-H1975, RERF-LC-KJ is lower in relative viability: 1.08 for the first, 0.941 for the second.

Going from ABC-1 to NCI-H358, the relative viability falls from 0.823 to 0.434.

Compared with NCI-H650, PC-3 [JPC-3] is lower in relative viability: 0.956 for the first, 0.427 for the second.
